Assay results from patent US10738028B2, “Spiro three-membered ring, spiro five-membered ring peptide deformylase inhibitor and use thereof in antibacteria and anti-tumor” (priority 2016, dated 2020).

What was measured:
Assay type in all cases: cell-based
[1] = tested on: methicillin-sensitive Staphylococcus aureus (MSSA); assay: MIC, two-fold agar dilution (CLSI), clinical isolates; details: for Anti-bacterial activity (MIC), strain MSSA 15-3: clinical isolate MSSA 15-3; for Anti-bacterial activity (MIC), strain MSSA 15-4: clinical isolate MSSA 15-4; for Anti-bacterial activity (MIC), strain MSSA 15-5: clinical isolate MSSA 15-5; for Anti-bacterial activity (MIC), strain MSSA 15-6: clinical isolate MSSA 15-6
How it was run: (§1)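 CLSI two-fold agar dilution; MIC of test samples read per tested strain.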

[2] = tested on: methicillin-resistant Staphylococcus aureus (MRSA); assay: as above; details: for Anti-bacterial activity (MIC), strain MRSA 15-1: clinical isolate MRSA 15-1; for Anti-bacterial activity (MIC), strain MRSA 15-2: clinical isolate MRSA 15-2; for Anti-bacterial activity (MIC), strain MRSA 15-3: clinical isolate MRSA 15-3; for Anti-bacterial activity (MIC), strain MRSA 15-4: clinical isolate MRSA 15-4
How it was run: as §1

[3] = tested on: methicillin-sensitive Staphylococcus epidermidis (MSSE); assay: as above; details: for Anti-bacterial activity (MIC), strain MSSE 15-3: clinical isolate MSSE 15-3; for Anti-bacterial activity (MIC), strain MSSE 15-4: clinical isolate MSSE 15-4; for Anti-bacterial activity (MIC), strain MSSE 15-5: clinical isolate MSSE 15-5; for Anti-bacterial activity (MIC), strain MSSE 15-6: clinical isolate MSSE 15-6
How it was run: as §1

[4] = tested on: Escherichia coli (including ESBLs, non-ESBLs); assay: as above; details: for Anti-bacterial activity (MIC), strain ECO+ 15-1: clinical isolate ECO+ 15-1; for Anti-bacterial activity (MIC), strain ECO+ 15-2: clinical isolate ECO+ 15-2; for Anti-bacterial activity (MIC), strain ECO+ 15-3: clinical isolate ECO+ 15-3; for Anti-bacterial activity (MIC), strain ECO+ 15-4: clinical isolate ECO+ 15-4; for Anti-bacterial activity (MIC), strain ECO− 15-1: clinical isolate ECO− 15-1; for Anti-bacterial activity (MIC), strain ECO− 15-2: clinical isolate ECO− 15-2; for Anti-bacterial activity (MIC), strain ECO− 15-3: clinical isolate ECO− 15-3; for Anti-bacterial activity (MIC), strain ECO− 15-4: clinical isolate ECO− 15-4
How it was run: as §1

[5] = tested on: Streptococcus pneoumoniae (SPN); assay: as above; details: for Anti-bacterial activity (MIC), strain SPN 16-2: clinical isolate SPN 16-2; for Anti-bacterial activity (MIC), strain SPN 16-4: clinical isolate SPN 16-4
How it was run: as §1

[6] = tested on: methicillin-resistant Staphylococcus epidermidis (MRSE); assay: as above; details: for Anti-bacterial activity (MIC), strain MRSE 15-1: clinical isolate MRSE 15-1; for Anti-bacterial activity (MIC), strain MRSE 15-2: clinical isolate MRSE 15-2; for Anti-bacterial activity (MIC), strain MRSE 15-3: clinical isolate MRSE 15-3; for Anti-bacterial activity (MIC), strain MRSE 15-7: clinical isolate MRSE 15-7
How it was run: as §1

[7] = tested on: Enterococcus faecalis (EFA); assay: as above; details: for Anti-bacterial activity (MIC), strain EFA 15-1: clinical isolate EFA 15-1; for Anti-bacterial activity (MIC), strain EFA 15-2: clinical isolate EFA 15-2; for Anti-bacterial activity (MIC), strain EFA 15-3: clinical isolate EFA 15-3; for Anti-bacterial activity (MIC), strain EFA 15-4: clinical isolate EFA 15-4; for Anti-bacterial activity (MIC), strain EFA 15-5: clinical isolate EFA 15-5; for Anti-bacterial activity (MIC), strain EFA 15-6: clinical isolate EFA 15-6; for Anti-bacterial activity (MIC), strain EFA 15-9: clinical isolate EFA 15-9
How it was run: as §1

[8] = tested on: Moraxella catarrhalis (BCA); assay: as above; details: for Anti-bacterial activity (MIC), strain BCA 14-1: clinical isolate BCA 14-1; for Anti-bacterial activity (MIC), strain BCA 14-4: clinical isolate BCA 14-4; for Anti-bacterial activity (MIC), strain BCA 14-5: clinical isolate BCA 14-5; for Anti-bacterial activity (MIC), strain BCA 14-6: clinical isolate BCA 14-6; for Anti-bacterial activity (MIC), strain BCA 14-7: clinical isolate BCA 14-7; for Anti-bacterial activity (MIC), strain BCA 14-8: clinical isolate BCA 14-8; for Anti-bacterial activity (MIC), strain BCA 14-10: clinical isolate BCA 14-10
How it was run: as §1

[9] = tested on: Enterococcus faecium (EFM); assay: as above; details: for Anti-bacterial activity (MIC), strain EFM 15-1: clinical isolate EFM 15-1; for Anti-bacterial activity (MIC), strain EFM 15-2: clinical isolate EFM 15-2; for Anti-bacterial activity (MIC), strain EFM 15-3: clinical isolate EFM 15-3; for Anti-bacterial activity (MIC), strain EFM 15-4: clinical isolate EFM 15-4; for Anti-bacterial activity (MIC), strain EFM 15-5: clinical isolate EFM 15-5; for Anti-bacterial activity (MIC), strain EFM 15-6: clinical isolate EFM 15-6
How it was run: as §1

[10] = tested on: HCT-116 colorectal cancer cell line; assay: CCK-8 proliferation inhibition; details: Homo sapiens, HCT-116, 72 h, concentration of 30 μM; 72 hours; CCK-8; read-out: HCT116 inhibition rate/%
How it was run: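 2000 cells/well, McCoy's 5A + 10% newborn bovine serum; overnight attach, 37° C./5% CO2. Cpd from DMSO stock diluted in medium, 72 h. Readout: CCK-8 (1:10). Ctrl 1‰ DMSO.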

In the case of `CCCC[C@H](CC(=O)NO)C(=O)N1CC2(CC2)C[C@H]1c1nc2ccccc2[nH]1` [Example 58, (R)-3-((S)-6-(1H-benzimidazol-2-yl)-5-azaspiro[2.4]heptane-5-formyl)-N-hydroxyheptanamide], the Anti-bacterial activity (MIC), strain MSSA 15-3 [1] was > 32 µg/mL, the Anti-bacterial activity (MIC), strain MSSA 15-4 [1] was > 32 µg/mL and the Anti-bacterial activity (MIC), strain MSSA 15-5 [1] was > 32 µg/mL. For the same molecule, the Anti-bacterial activity (MIC), strain MSSA 15-6 [1] was > 32 µg/mL, the Anti-bacterial activity (MIC), strain MRSA 15-1 [2] was > 32 µg/mL and the Anti-bacterial activity (MIC), strain MRSA 15-2 [2] was > 32 µg/mL. For the same molecule, the Anti-bacterial activity (MIC), strain MRSA 15-3 [2] was > 32 µg/mL, the Anti-bacterial activity (MIC), strain MRSA 15-4 [2] was > 32 µg/mL and the Anti-bacterial activity (MIC), strain MSSE 15-3 [3] was > 32 µg/mL. The Anti-bacterial activity (MIC), strain MSSE 15-4 [3] was > 32 µg/mL, the Anti-bacterial activity (MIC), strain MSSE 15-5 [3] was > 32 µg/mL and the Anti-bacterial activity (MIC), strain MSSE 15-6 [3] was > 32 µg/mL. For the same molecule, the Anti-bacterial activity (MIC), strain ECO+ 15-1 [4] was > 32 µg/mL, the Anti-bacterial activity (MIC), strain ECO+ 15-2 [4] was > 32 µg/mL and the Anti-bacterial activity (MIC), strain ECO+ 15-3 [4] was > 32 µg/mL. For the same molecule, the Anti-bacterial activity (MIC), strain ECO+ 15-4 [4] was > 32 µg/mL, the Anti-bacterial activity (MIC), strain ECO− 15-1 [4] was > 32 µg/mL and the Anti-bacterial activity (MIC), strain ECO− 15-2 [4] was > 32 µg/mL. The Anti-bacterial activity (MIC), strain ECO− 15-3 [4] was > 32 µg/mL, the Anti-bacterial activity (MIC), strain ECO− 15-4 [4] was > 32 µg/mL and the Anti-bacterial activity (MIC), strain SPN 16-2 [5] was 8 µg/mL. The Anti-bacterial activity (MIC), strain SPN 16-4 [5] was > 32 µg/mL, the Anti-bacterial activity (MIC), strain MRSE 15-1 [6] was > 32 µg/mL and the Anti-bacterial activity (MIC), strain MRSE 15-2 [6] was > 32 µg/mL. The Anti-bacterial activity (MIC), strain MRSE 15-3 [6] was > 32 µg/mL, the Anti-bacterial activity (MIC), strain MRSE 15-7 [6] was > 32 µg/mL and the Anti-bacterial activity (MIC), strain EFA 15-1 [7] was > 32 µg/mL. The Anti-bacterial activity (MIC), strain EFA 15-2 [7] was > 32 µg/mL, the Anti-bacterial activity (MIC), strain EFA 15-3 [7] was > 32 µg/mL and the Anti-bacterial activity (MIC), strain EFA 15-4 [7] was > 32 µg/mL. For the same molecule, the Anti-bacterial activity (MIC), strain EFA 15-5 [7] was > 32 µg/mL, the Anti-bacterial activity (MIC), strain EFA 15-6 [7] was > 32 µg/mL and the Anti-bacterial activity (MIC), strain EFA 15-9 [7] was > 32 µg/mL. For the same molecule, the Anti-bacterial activity (MIC), strain BCA 14-1 [8] was > 32 µg/mL, the Anti-bacterial activity (MIC), strain BCA 14-4 [8] was > 32 µg/mL and the Anti-bacterial activity (MIC), strain BCA 14-5 [8] was 8 µg/mL. For the same molecule, the Anti-bacterial activity (MIC), strain BCA 14-6 [8] was > 32 µg/mL, the Anti-bacterial activity (MIC), strain BCA 14-7 [8] was > 32 µg/mL and the Anti-bacterial activity (MIC), strain BCA 14-8 [8] was > 32 µg/mL. The Anti-bacterial activity (MIC), strain BCA 14-10 [8] was > 32 µg/mL, the Anti-bacterial activity (MIC), strain EFM 15-1 [9] was > 32 µg/mL and the Anti-bacterial activity (MIC), strain EFM 15-2 [9] was > 32 µg/mL. The Anti-bacterial activity (MIC), strain EFM 15-3 [9] was > 32 µg/mL, the Anti-bacterial activity (MIC), strain EFM 15-4 [9] was 8 µg/mL and the Anti-bacterial activity (MIC), strain EFM 15-5 [9] was 8 µg/mL. For the same molecule, the Anti-bacterial activity (MIC), strain EFM 15-6 [9] was 8 µg/mL and the inhibition at 30 µM [10] was 24%.

`CCCC[C@H](CC(=O)NO)C(=O)N1CC2(CC2)C[C@@H]1c1nc2ccccc2[nH]1` [Example 59, (R)-3-((R)-6-(1H-benzimidazol-2-yl)-5-azaspiro[2.4]heptane-5-carbonyl)-N-hydroxyheptanamide] was tested, and the Anti-bacterial activity (MIC), strain MSSA 15-3 [1] was > 32 µg/mL, the Anti-bacterial activity (MIC), strain MSSA 15-4 [1] was > 32 µg/mL and the Anti-bacterial activity (MIC), strain MSSA 15-5 [1] was > 32 µg/mL. The Anti-bacterial activity (MIC), strain MSSA 15-6 [1] was > 32 µg/mL, the Anti-bacterial activity (MIC), strain MRSA 15-1 [2] was > 32 µg/mL and the Anti-bacterial activity (MIC), strain MRSA 15-2 [2] was > 32 µg/mL. The Anti-bacterial activity (MIC), strain MRSA 15-3 [2] was > 32 µg/mL, the Anti-bacterial activity (MIC), strain MRSA 15-4 [2] was > 32 µg/mL and the Anti-bacterial activity (MIC), strain MSSE 15-3 [3] was > 32 µg/mL. The Anti-bacterial activity (MIC), strain MSSE 15-4 [3] was > 32 µg/mL, the Anti-bacterial activity (MIC), strain MSSE 15-5 [3] was > 32 µg/mL and the Anti-bacterial activity (MIC), strain MSSE 15-6 [3] was > 32 µg/mL. The Anti-bacterial activity (MIC), strain ECO+ 15-1 [4] was > 32 µg/mL, the Anti-bacterial activity (MIC), strain ECO+ 15-2 [4] was > 32 µg/mL and the Anti-bacterial activity (MIC), strain ECO+ 15-3 [4] was > 32 µg/mL. For the same molecule, the Anti-bacterial activity (MIC), strain ECO+ 15-4 [4] was > 32 µg/mL, the Anti-bacterial activity (MIC), strain ECO− 15-1 [4] was > 32 µg/mL and the Anti-bacterial activity (MIC), strain ECO− 15-2 [4] was > 32 µg/mL. The Anti-bacterial activity (MIC), strain ECO− 15-3 [4] was > 32 µg/mL, the Anti-bacterial activity (MIC), strain ECO− 15-4 [4] was > 32 µg/mL and the Anti-bacterial activity (MIC), strain SPN 16-2 [5] was 8 µg/mL. The Anti-bacterial activity (MIC), strain SPN 16-4 [5] was 8 µg/mL, the Anti-bacterial activity (MIC), strain MRSE 15-1 [6] was > 32 µg/mL and the Anti-bacterial activity (MIC), strain MRSE 15-2 [6] was > 32 µg/mL. For the same molecule, the Anti-bacterial activity (MIC), strain MRSE 15-3 [6] was > 32 µg/mL, the Anti-bacterial activity (MIC), strain MRSE 15-7 [6] was > 32 µg/mL and the Anti-bacterial activity (MIC), strain EFA 15-1 [7] was > 32 µg/mL. The Anti-bacterial activity (MIC), strain EFA 15-2 [7] was > 32 µg/mL, the Anti-bacterial activity (MIC), strain EFA 15-3 [7] was > 32 µg/mL and the Anti-bacterial activity (MIC), strain EFA 15-4 [7] was > 32 µg/mL. The Anti-bacterial activity (MIC), strain EFA 15-5 [7] was > 32 µg/mL, the Anti-bacterial activity (MIC), strain EFA 15-6 [7] was > 32 µg/mL and the Anti-bacterial activity (MIC), strain EFA 15-9 [7] was > 32 µg/mL. For the same molecule, the Anti-bacterial activity (MIC), strain BCA 14-1 [8] was > 32 µg/mL, the Anti-bacterial activity (MIC), strain BCA 14-4 [8] was > 32 µg/mL and the Anti-bacterial activity (MIC), strain BCA 14-5 [8] was 16 µg/mL. For the same molecule, the Anti-bacterial activity (MIC), strain BCA 14-6 [8] was > 32 µg/mL, the Anti-bacterial activity (MIC), strain BCA 14-7 [8] was > 32 µg/mL and the Anti-bacterial activity (MIC), strain BCA 14-8 [8] was > 32 µg/mL. The Anti-bacterial activity (MIC), strain BCA 14-10 [8] was > 32 µg/mL, the Anti-bacterial activity (MIC), strain EFM 15-1 [9] was > 32 µg/mL and the Anti-bacterial activity (MIC), strain EFM 15-2 [9] was > 32 µg/mL. The Anti-bacterial activity (MIC), strain EFM 15-3 [9] was > 32 µg/mL, the Anti-bacterial activity (MIC), strain EFM 15-4 [9] was > 32 µg/mL and the Anti-bacterial activity (MIC), strain EFM 15-5 [9] was 16 µg/mL. It also gave an Anti-bacterial activity (MIC), strain EFM 15-6 [9] of 16 µg/mL and an inhibition at 30 µM [10] of 12%.
